The source of these data is ChEMBL document CHEMBL1134397, “Synthesis, structure-activity relationships, and pharmacokinetic profiles of nonpeptidic alpha-keto heterocycles as novel inhibitors of human chymase” (J Med Chem, 2001).

pKi: −log10 of the molar value. Active and inactive are the calls of the source.

Angiotensin-converting enzyme (Homo sapiens), sequence (P12821 whole entry): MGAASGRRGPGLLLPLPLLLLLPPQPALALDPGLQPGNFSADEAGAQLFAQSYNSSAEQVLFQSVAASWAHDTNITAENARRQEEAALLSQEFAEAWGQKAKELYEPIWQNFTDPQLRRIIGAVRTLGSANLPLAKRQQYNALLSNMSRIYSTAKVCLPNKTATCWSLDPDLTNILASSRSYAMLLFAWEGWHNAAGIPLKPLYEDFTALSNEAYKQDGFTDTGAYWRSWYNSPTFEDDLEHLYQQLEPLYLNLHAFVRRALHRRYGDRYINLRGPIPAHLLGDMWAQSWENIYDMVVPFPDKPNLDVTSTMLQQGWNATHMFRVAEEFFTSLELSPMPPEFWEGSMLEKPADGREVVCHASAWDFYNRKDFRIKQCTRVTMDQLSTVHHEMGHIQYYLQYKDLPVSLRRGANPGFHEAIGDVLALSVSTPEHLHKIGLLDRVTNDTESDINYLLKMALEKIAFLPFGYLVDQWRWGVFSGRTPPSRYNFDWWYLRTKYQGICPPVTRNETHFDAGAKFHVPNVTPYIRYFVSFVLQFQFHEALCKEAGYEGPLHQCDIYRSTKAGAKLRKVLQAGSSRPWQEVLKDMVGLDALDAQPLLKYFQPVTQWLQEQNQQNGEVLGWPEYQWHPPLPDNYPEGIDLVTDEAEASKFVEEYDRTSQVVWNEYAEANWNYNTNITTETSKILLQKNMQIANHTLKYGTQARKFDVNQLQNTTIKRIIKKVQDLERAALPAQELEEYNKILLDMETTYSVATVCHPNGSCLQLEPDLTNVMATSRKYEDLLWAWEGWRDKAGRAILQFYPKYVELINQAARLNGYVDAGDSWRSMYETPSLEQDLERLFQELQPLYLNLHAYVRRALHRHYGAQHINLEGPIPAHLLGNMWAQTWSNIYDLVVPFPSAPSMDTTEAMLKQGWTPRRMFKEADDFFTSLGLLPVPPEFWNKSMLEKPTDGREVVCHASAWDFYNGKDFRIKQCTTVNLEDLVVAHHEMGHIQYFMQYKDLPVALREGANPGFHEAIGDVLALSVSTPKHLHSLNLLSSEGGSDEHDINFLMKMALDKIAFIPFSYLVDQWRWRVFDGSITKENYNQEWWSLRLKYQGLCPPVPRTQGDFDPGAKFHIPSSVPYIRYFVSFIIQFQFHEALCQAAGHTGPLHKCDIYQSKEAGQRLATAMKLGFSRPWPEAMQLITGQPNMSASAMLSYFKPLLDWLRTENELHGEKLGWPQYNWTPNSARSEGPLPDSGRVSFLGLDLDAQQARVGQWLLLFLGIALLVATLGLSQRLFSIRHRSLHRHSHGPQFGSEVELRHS

Tested on in one data set: not listed separately
The data set can be described thus: Steady state volume distribution was determined; steady state(ss). The settings on record: rat, in vivo. The data set is classed as ADME, organism-based.
Take `COC(=O)c1ccc2oc(C(=O)C(Cc3ccccc3)NC(=O)Cn3c(-c4cccc(OC)c4)ncc(N)c3=O)nc2c1` (centres undefined): the Vd – broadly, a proportionality between amount in the body and measured concentration, not a real space – came to 0.469 L/kg.

Tested on in another data set: not listed separately
Briefly: Pharmacokinetic parameter AUC was determined when a dose of 1 mg/kg was administered intravenously. The data set is classed as ADME, organism-based. Also on record: dose 1 mg/kg, route intravenous. The settings on record: rat, in vivo, iv.
Turning to `COC(=O)c1ccc2oc(C(=O)C(Cc3ccccc3)NC(=O)Cn3c(-c4cccc(OC)c4)ncc(N)c3=O)nc2c1` (centres undefined), the AUC (commonly the area under the concentration-time curve, a measure of exposure) is 108000 ng·h/mL.

Tested on in another data set: not listed separately
Briefly: Pharmacokinetic parameter AUC was determined when a dose of 1 mg/kg was administered orally. The data set is classed as ADME, organism-based. Also on record: dose 1 mg/kg, route oral. The settings on record: rat, in vivo, po.
Compound `COC(=O)c1ccc2oc(C(=O)C(Cc3ccccc3)NC(=O)Cn3c(-c4cccc(OC)c4)ncc(N)c3=O)nc2c1` (centres undefined) had an AUC of 20800 ng·h/mL.

Tested on in a further data set: not listed separately
The data set can be described thus: Maximum plasma concentration was measured when a dose of 1 mg/kg is administered orally. Also on record: dose 1 mg/kg, route oral. The data set is classed as ADME, organism-based. The settings on record: rat, po.
With `COC(=O)c1ccc2oc(C(=O)C(Cc3ccccc3)NC(=O)Cn3c(-c4cccc(OC)c4)ncc(N)c3=O)nc2c1` (centres undefined), the concentration peaked (Cmax) at 396 ng/mL.

Tested on in a further data set: not listed separately
Briefly: Pharmacokinetic parameter plasma clearance was determined at when a dose of 1 mg/kg is administered. The data set is classed as ADME, organism-based. Also on record: dose 1 mg/kg. As to conditions: rat.
Regarding `COC(=O)c1ccc2oc(C(=O)C(Cc3ccccc3)NC(=O)Cn3c(-c4cccc(OC)c4)ncc(N)c3=O)nc2c1` (centres undefined), the clearance (usually the rate of elimination divided by the concentration) was 0.168 mL/min/kg.

Tested on in a further data set: not listed separately
The data set can be described thus: Time to reach Cmax when a dose of 1 mg/kg is administered orally. The data set is classed as ADME, organism-based. The arrangement: dose 1 mg/kg, route oral. The settings on record: rat, in vivo, po.
`COC(=O)c1ccc2oc(C(=O)C(Cc3ccccc3)NC(=O)Cn3c(-c4cccc(OC)c4)ncc(N)c3=O)nc2c1` (centres undefined): the Tmax – broadly, the time at which the peak concentration occurs – is 6 h.

Tested on in another data set: not listed separately
Briefly: Oral Bioavailability was determined. The data set is classed as ADME, organism-based. The settings on record: rat, in vivo, read-out: BA.
In the case of `COC(=O)c1ccc2oc(C(=O)C(Cc3ccccc3)NC(=O)Cn3c(-c4cccc(OC)c4)ncc(N)c3=O)nc2c1` (centres undefined), the bioavailability came to 19.3%.

Tested on in another data set: not listed separately
The data set can be described thus: Half life was evaluated when a dose of 1 mg/kg was administered intravenously to rats. The arrangement: dose 1 mg/kg, route intravenous. The data set is classed as ADME, organism-based. As to conditions: rat, in vivo, iv.
For the compound `COC(=O)c1ccc2oc(C(=O)C(Cc3ccccc3)NC(=O)Cn3c(-c4cccc(OC)c4)ncc(N)c3=O)nc2c1` (centres undefined), the half-life (commonly the time needed for the level to fall by half in the phase considered) is 35.7 h.

The target of another data set is Chymotrypsinogen A (Bos taurus, UniProt P00766). The data set can be described thus: Inhibitory activity against alpha chymotrypsin from bovine pancreas.
Conditions: not given
For the compound `CCNC(=O)c1ccc2oc(C(=O)C(Cc3ccccc3)NC(=O)Cn3c(-c4ccc(F)cc4)ncc(N)c3=O)nc2c1` (centres undefined), the pKi (commonly −log10 of the Ki, conventionally taken in molar units) is 7.49.
Same read-out and setting: with `CCOC(=O)c1ccc2oc(C(=O)C(Cc3ccccc3)NC(=O)Cn3c(-c4ccc(F)cc4)ncc(N)c3=O)nc2c1` (centres undefined) the figure was 6.32; with `Nc1cnc(-c2ccc(F)cc2)n(CC(=O)NC(Cc2ccccc2)C(=O)c2nc3cc(F)ccc3o2)c1=O` (centres undefined), 7.19.
As for `COC(=O)c1ccc2oc(C(=O)C(Cc3ccccc3)NC(=O)Cn3c(-c4cccc(C)c4)ncc(N)c3=O)nc2c1` (centres undefined), the pKi is 7.32.
Still for that read-out and setting: with `COC(=O)c1ccc2oc(C(=O)C(Cc3ccccc3)NC(=O)Cn3c(-c4cccc(N)c4)ncc(N)c3=O)nc2c1` (centres undefined) the figure was 6.07.
The same measure, in the same setting: the result for `Nc1cnc(-c2ccc(F)cc2)n(CC(=O)NC(Cc2ccccc2)C(=O)c2nc3cc(O)ccc3o2)c1=O` (centres undefined) reads 5.65; that for `COC(=O)c1ccc2oc(C(=O)C(Cc3ccccc3)NC(=O)Cn3c(-c4cccc(Cl)c4)ncc(N)c3=O)nc2c1` (centres undefined), 5.42; that for `COC(=O)c1ccc2oc(C(=O)C(Cc3ccccc3)NC(=O)Cn3c(-c4ccncc4)ncc(N)c3=O)nc2c1` (centres undefined), 6.33.
On the same count and under the same terms, with `COC(=O)c1ccc2oc(C(=O)C(Cc3ccccc3)NC(=O)Cn3c(-c4cccc(OC)c4)ncc(N)c3=O)nc2c1` (centres undefined) the figure was 6.03.
Take `COC(=O)c1ccc2oc(C(=O)C(Cc3ccccc3)NC(=O)Cn3c(-c4cccc([N+](=O)[O-])c4)ncc(N)c3=O)nc2c1` (centres undefined): the pKi is 4.94.
Regarding `COC(=O)c1ccc2oc(C(=O)C(Cc3ccccc3)NC(=O)Cn3c(-c4cccnc4)ncc(N)c3=O)nc2c1` (centres undefined), the pKi was 7.35.

A further data set concerns the target T1, Neutrophil elastase (Homo sapiens) (UniProt P08246).
T1 sequence (whole entry): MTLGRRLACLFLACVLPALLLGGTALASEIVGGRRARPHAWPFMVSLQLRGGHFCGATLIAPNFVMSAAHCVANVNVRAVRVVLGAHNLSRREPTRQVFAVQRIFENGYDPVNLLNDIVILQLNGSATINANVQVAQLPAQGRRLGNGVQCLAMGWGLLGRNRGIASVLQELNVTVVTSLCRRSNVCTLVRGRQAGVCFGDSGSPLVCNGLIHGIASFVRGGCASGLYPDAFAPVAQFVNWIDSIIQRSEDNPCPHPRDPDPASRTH
Briefly: Inhibitory activity against human leukocyte elastase (10 uM); No inhibition.
Conditions: not given
For the compound `COC(=O)c1ccc2oc(C(=O)C(Cc3ccccc3)NC(=O)Cn3c(-c4cccc(OC)c4)ncc(N)c3=O)nc2c1` (centres undefined), the NA result is “inactive”.

Another data set concerns the target T2, Chymase (Homo sapiens, UniProt P23946).
T2 sequence (P23946 whole entry): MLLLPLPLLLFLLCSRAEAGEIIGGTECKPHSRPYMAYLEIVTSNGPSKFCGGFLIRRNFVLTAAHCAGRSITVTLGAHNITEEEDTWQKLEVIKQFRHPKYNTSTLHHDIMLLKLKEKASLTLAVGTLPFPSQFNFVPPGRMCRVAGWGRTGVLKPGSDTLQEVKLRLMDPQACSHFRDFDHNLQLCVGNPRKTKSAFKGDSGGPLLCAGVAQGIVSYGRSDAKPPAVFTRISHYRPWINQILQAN
The data set can be described thus: inhibitory activity was evaluated against chymase from human heart.
Conditions: not given
In turn, `COC(=O)c1ccc2oc(C(=O)C(Cc3ccccc3)NC(=O)Cn3c(-c4cccnc4)ncc(N)c3=O)nc2c1` (centres undefined) had a pKi of 7.11.

The next data set addresses T3, Chymase (Rattus norvegicus, UniProt P50339).
T3 sequence (P50339 whole entry): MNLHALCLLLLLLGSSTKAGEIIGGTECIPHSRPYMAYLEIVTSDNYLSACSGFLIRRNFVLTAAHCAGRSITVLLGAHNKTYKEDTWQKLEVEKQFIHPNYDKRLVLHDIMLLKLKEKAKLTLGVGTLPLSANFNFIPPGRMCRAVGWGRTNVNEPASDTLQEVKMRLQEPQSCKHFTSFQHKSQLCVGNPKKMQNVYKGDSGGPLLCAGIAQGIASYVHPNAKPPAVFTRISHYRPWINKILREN
Briefly: Inhibitory activity against rat peritoneal chymase.
Conditions: not given
Take `COC(=O)c1ccc2oc(C(=O)C(Cc3ccccc3)NC(=O)Cn3c(-c4cccc(OC)c4)ncc(N)c3=O)nc2c1` (centres undefined): the pKi is 7.06.

Another data set has as its target T4, Mast cell protease 9 (Mus musculus, UniProt O35164).
T4 sequence (O35164 whole entry): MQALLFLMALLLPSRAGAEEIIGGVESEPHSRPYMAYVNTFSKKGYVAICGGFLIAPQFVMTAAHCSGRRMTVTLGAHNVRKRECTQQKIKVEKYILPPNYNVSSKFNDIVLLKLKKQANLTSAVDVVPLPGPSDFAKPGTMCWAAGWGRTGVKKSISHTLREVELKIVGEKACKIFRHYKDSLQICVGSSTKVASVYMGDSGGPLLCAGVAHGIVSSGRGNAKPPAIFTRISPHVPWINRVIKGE
Briefly: Inhibitory activity against mouse peritoneal chymase.
Conditions: not given
For the compound `COC(=O)c1ccc2oc(C(=O)C(Cc3ccccc3)NC(=O)Cn3c(-c4cccc(OC)c4)ncc(N)c3=O)nc2c1` (centres undefined), the pKi was 7.19.

The target of another data set is Prothrombin (Homo sapiens) (UniProt P00734). Briefly: inhibitory activity against human plasma thrombin (10 uM); No inhibition. The data set is classed as cell-free.
Conditions: not given
With `COC(=O)c1ccc2oc(C(=O)C(Cc3ccccc3)NC(=O)Cn3c(-c4cccc(OC)c4)ncc(N)c3=O)nc2c1` (centres undefined), the NA result was “inactive”.

Another data set concerns the target T2, Chymase. Briefly: Inhibitory activity evaluated against chymase from human heart.
Conditions: not given
As for `CCNC(=O)c1ccc2oc(C(=O)C(Cc3ccccc3)NC(=O)Cn3c(-c4ccc(F)cc4)ncc(N)c3=O)nc2c1` (centres undefined), the pKi is 7.16.
Compound `CCOC(=O)c1ccc2oc(C(=O)C(Cc3ccccc3)NC(=O)Cn3c(-c4ccc(F)cc4)ncc(N)c3=O)nc2c1` (centres undefined) gave a pKi of 7.52.
For `COC(=O)c1ccc2oc(C(=O)C(Cc3ccccc3)NC(=O)Cn3c(-c4cccc(C)c4)ncc(N)c3=O)nc2c1` (centres undefined), the negative logarithm of the Ki (pKi) is 7.35.
Regarding `COC(=O)c1ccc2oc(C(=O)C(Cc3ccccc3)NC(=O)Cn3c(-c4cccc(N)c4)ncc(N)c3=O)nc2c1` (centres undefined), the pKi is 8.25.
The same measure, in the same setting: the result for `Nc1cnc(-c2ccc(F)cc2)n(CC(=O)NC(Cc2ccccc2)C(=O)c2nc3cc(O)ccc3o2)c1=O` (centres undefined) reads 5.67.
Still for that read-out and setting: the result for `COC(=O)c1ccc2oc(C(=O)C(Cc3ccccc3)NC(=O)Cn3c(-c4cccc(Cl)c4)ncc(N)c3=O)nc2c1` (centres undefined) reads 7.58.
The compound `COC(=O)c1ccc2oc(C(=O)C(Cc3ccccc3)NC(=O)Cn3c(-c4ccncc4)ncc(N)c3=O)nc2c1` (centres undefined) had a negative logarithm of the Ki (pKi) of 7.36.
`COC(=O)c1ccc2oc(C(=O)C(Cc3ccccc3)NC(=O)Cn3c(-c4cccc(OC)c4)ncc(N)c3=O)nc2c1` (centres undefined) had a pKi of 8.31.

A further data set concerns the target Angiotensin-converting enzyme (Homo sapiens) (UniProt P12821). The data set can be described thus: Inhibitory activity against human angiotensin I converting enzyme (10 uM); No inhibition.
Conditions: not given
For the compound `COC(=O)c1ccc2oc(C(=O)C(Cc3ccccc3)NC(=O)Cn3c(-c4cccc(OC)c4)ncc(N)c3=O)nc2c1` (centres undefined), the NA result was “inactive”.

In another data set the target is T2, Chymase.
Conditions: not given
As for `COC(=O)c1ccc2oc(C(=O)C(Cc3ccccc3)NC(=O)Cn3c(-c4cccc(OC)c4)ncc(N)c3=O)nc2c1` (centres undefined), the pKi was 8.95.
